# Measurements reported in article PMC2587278 (Antioxidants & redox signaling, 2008).
# Target: T1, zebrafish Ape1 (zApe1) (Danio rerio, UniProt A0MTA1, T58C)
# T1 sequence (A0MTA1 1-310 T58C): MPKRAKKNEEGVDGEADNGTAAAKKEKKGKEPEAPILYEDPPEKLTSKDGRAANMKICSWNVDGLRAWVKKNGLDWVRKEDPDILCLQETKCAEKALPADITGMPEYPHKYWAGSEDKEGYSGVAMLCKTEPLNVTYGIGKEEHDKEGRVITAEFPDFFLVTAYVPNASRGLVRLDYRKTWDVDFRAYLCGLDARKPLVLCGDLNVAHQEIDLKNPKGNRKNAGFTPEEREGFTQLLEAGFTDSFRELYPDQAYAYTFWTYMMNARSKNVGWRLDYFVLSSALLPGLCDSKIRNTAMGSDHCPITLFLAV
# Assay: redox EMSA: Ape1-stimulated AP-1 DNA binding, HEX-labelled oligonucleotide
# Format: biochemical
smiles,measurement,value
"CCCCCCCCC/C(=C\C1=C(C)C(=O)C(OC)=C(OC)C1=O)C(=O)O [compound 5, (E)-3-(4,5-dimethoxy-2-methyl-3,6-dioxocyclohexa-1,4-dienyl)-2-nonylpropenoic acid]",IC50,5 µM
